In publication PMC12588083, “Validated antimalarial drug target discovery using genome-scale metabolic modeling” (Antimicrobial Agents and Chemotherapy, 2025):

Test system: synchronised Plasmodium falciparum 3D7 cultures
Assay: In vitro flux measurements of glucose and amino acids in spent media
Type: cell-based
Details: ± SD, positive = into infected red blood cell, negative = efflux into media; for flux 6 - 18 hps: early to mid-ring stage; for flux 42 - 48 hps: late schizont stage; for flux 30 - 36 hps: late trophozoite stage
Method: Cultures were synchronized with 5% sorbitol ([36]). Synchronized cultures with a total volume of 18 mL at 1% parasitemia and 5% hematocrit were placed in nonvented 75 cm^2 tissue culture flasks (Nunclon). Red blood cells at 5% hematocrit were used as control. One milliliter of culture was collected at time 0 and every 6 hours until 48 hours post synchronization. The collected sample was placed in a 1.5 mL microcentrifuge tube and centrifuged at 3,000 RPM for 2 minutes. The spent media were collected and stored at −80°C prior to analysis. Three biological replicates were analyzed.
A glucose assay on the spent media was performed using a glucose oxidase-peroxidase format assay kit (Megazyme). Amino acid concentrations in the spent media were determined using an Ultimate 3000 High-Performance Liquid Chromatography system (Dionex, UK). A ramp gradient reverse-phase chromatography was done with an Acclaim 120 C18 (Dionex, UK) 100 × 2.1 mm column (3 µm particle size, 120 Å pore size) stationary phase. Eluent A (10 mM Na2HPO4, 10 mM Na2HB4O7·10 H2O, 0.5 mM NaN3, pH 8.2) and eluent B (45% methanol [vol/vol] 45% acetonitrile [vol/vol] in water) constituted the mobile phase (Table S1).
Samples were derivatized manually within 10 minutes prior to chromatography. The derivatization procedure was done in a 1.5 mL microcentrifuge tube at room temperature by adding the following reagents in this particular order:
Spent media for both infected and uninfected (control) samples were assayed for glucose and amino acid concentrations as detailed above. The net metabolite flux from time 0 ( t0 ) to time n ( tn ) was calculated using the formula:
fluxt0-tn=vt0×∆Ci-∆Cu/gDWt0×∆t
The parasite mass gDWt0 was determined using the calculated number of parasites based on the parasitemia, hematocrit, and the volume at t0 :
In this case, it was assumed for simplicity that each infected RBC contained only one parasite. […] Flux calculations were done to represent the three main blood stage forms: the change in concentration from t6 to t18 was used to calculate the early to mid-ring stage flux, from t30 to t36 for the late trophozoite, and from t42 to t48 for the late schizont stage. […] A positive flux represents the entry of metabolites into the model, while a negative flux represents the movement of metabolites into the external environment.
Supplementary Table 5 Experimental glucose and amino acid flux measurements. […] A positive flux indicates movement of the metabolite into the infected red blood cell while a negative flux indicates efflux of the metabolite into the media.

OC[C@H]1OC(O)[C@H](O)[C@@H](O)[C@@H]1O (stereo partly drawn) [D-Glucose]
flux 6 - 18 hps: 1.3 ± 0.82 mmol/gDW/hr | flux 42 - 48 hps: 0.60 ± 0.21 mmol/gDW/hr | flux 30 - 36 hps: 3.2 ± 1.2 mmol/gDW/hr

NCC(=O)O [Glycine]
flux 6 - 18 hps: -0.014 ± 0.028 mmol/gDW/hr | flux 42 - 48 hps: 0.037 ± 0.17 mmol/gDW/hr | flux 30 - 36 hps: -0.0093 ± 0.12 mmol/gDW/hr

C[C@H](N)C(=O)O [L-Alanine]
flux 6 - 18 hps: -0.023 ± 0.017 mmol/gDW/hr | flux 42 - 48 hps: 0.00 ± 0.024 mmol/gDW/hr | flux 30 - 36 hps: -0.041 ± 0.036 mmol/gDW/hr

N=C(N)NCCC[C@H](N)C(=O)O [L-Arginine]
flux 6 - 18 hps: 0.072 ± 0.11 mmol/gDW/hr | flux 42 - 48 hps: 0.22 ± 0.35 mmol/gDW/hr | flux 30 - 36 hps: -0.15 ± 0.49 mmol/gDW/hr

NC(=O)C[C@H](N)C(=O)O [L-Asparagine]
flux 6 - 18 hps: -0.0094 ± 0.011 mmol/gDW/hr | flux 42 - 48 hps: 0.070 ± 0.17 mmol/gDW/hr | flux 30 - 36 hps: -0.10 ± 0.12 mmol/gDW/hr

N[C@@H](CC(=O)O)C(=O)O [L-Aspartic acid]
flux 6 - 18 hps: 0.0048 ± 0.011 mmol/gDW/hr | flux 42 - 48 hps: 0.019 ± 0.058 mmol/gDW/hr | flux 30 - 36 hps: 0.00 ± 0.029 mmol/gDW/hr

N[C@@H](CCC(=O)O)C(=O)O [L-Glutamic acid]
flux 6 - 18 hps: -0.019 ± 0.0081 mmol/gDW/hr | flux 42 - 48 hps: 0.0047 ± 0.077 mmol/gDW/hr | flux 30 - 36 hps: -0.056 ± 0.024 mmol/gDW/hr

NC(=O)CC[C@H](N)C(=O)O [L-Glutamine]
flux 6 - 18 hps: 0.00 ± 0.023 mmol/gDW/hr | flux 42 - 48 hps: 0.36 ± 0.72 mmol/gDW/hr | flux 30 - 36 hps: -0.40 ± 0.63 mmol/gDW/hr

N[C@@H](Cc1c[nH]cn1)C(=O)O [L-Histidine]
flux 6 - 18 hps: -0.0073 ± 0.013 mmol/gDW/hr | flux 42 - 48 hps: 0.066 ± 0.076 mmol/gDW/hr | flux 30 - 36 hps: -0.066 ± 0.095 mmol/gDW/hr

CC[C@H](C)[C@H](N)C(=O)O [L-Isoleucine]
flux 6 - 18 hps: 0.017 ± 0.023 mmol/gDW/hr | flux 42 - 48 hps: 0.081 ± 0.14 mmol/gDW/hr | flux 30 - 36 hps: -0.062 ± 0.14 mmol/gDW/hr

CC(C)C[C@H](N)C(=O)O [L-Leucine]
flux 6 - 18 hps: 0.28 ± 0.065 mmol/gDW/hr | flux 42 - 48 hps: 0.047 ± 0.10 mmol/gDW/hr | flux 30 - 36 hps: -0.14 ± 0.070 mmol/gDW/hr

NCCCC[C@H](N)C(=O)O [L-Lysine]
flux 6 - 18 hps: 0.00 ± 0.064 mmol/gDW/hr | flux 42 - 48 hps: 0.073 ± 0.29 mmol/gDW/hr | flux 30 - 36 hps: 0.038 ± 0.20 mmol/gDW/hr

CSCC[C@H](N)C(=O)O [L-Methionine]
flux 6 - 18 hps: 0.0024 ± 0.0082 mmol/gDW/hr | flux 42 - 48 hps: 0.028 ± 0.025 mmol/gDW/hr | flux 30 - 36 hps: -0.028 ± 0.025 mmol/gDW/hr

N[C@@H](Cc1ccccc1)C(=O)O [L-Phenylalanine]
flux 6 - 18 hps: -0.0099 ± 0.016 mmol/gDW/hr | flux 42 - 48 hps: 0.025 ± 0.023 mmol/gDW/hr | flux 30 - 36 hps: -0.035 ± 0.0086 mmol/gDW/hr

N[C@@H](CO)C(=O)O [L-Serine]
flux 6 - 18 hps: -0.019 ± 0.021 mmol/gDW/hr | flux 42 - 48 hps: 0.062 ± 0.11 mmol/gDW/hr | flux 30 - 36 hps: -0.062 ± 0.091 mmol/gDW/hr

C[C@@H](O)[C@H](N)C(=O)O [L-Threonine]
flux 6 - 18 hps: -0.014 ± 0.026 mmol/gDW/hr | flux 42 - 48 hps: 0.028 ± 0.099 mmol/gDW/hr | flux 30 - 36 hps: -0.038 ± 0.050 mmol/gDW/hr

N[C@@H](Cc1c[nH]c2ccccc12)C(=O)O [L-Tryptophan]
flux 6 - 18 hps: 0.0026 ± 0.0045 mmol/gDW/hr | flux 42 - 48 hps: 0.010 ± 0.024 mmol/gDW/hr | flux 30 - 36 hps: 0.010 ± 0.036 mmol/gDW/hr

N[C@@H](Cc1ccc(O)cc1)C(=O)O [L-Tyrosine]
flux 6 - 18 hps: -0.0051 ± 0.0044 mmol/gDW/hr | flux 42 - 48 hps: -0.046 ± 0.17 mmol/gDW/hr | flux 30 - 36 hps: -0.031 ± 0.031 mmol/gDW/hr

CC(C)[C@H](N)C(=O)O [L-Valine]
flux 6 - 18 hps: -0.036 ± 0.098 mmol/gDW/hr | flux 42 - 48 hps: 0.024 ± 0.12 mmol/gDW/hr | flux 30 - 36 hps: -0.0096 ± 0.022 mmol/gDW/hr
